What was measured:
Assay in all cases: relative viability (nuclei count vs DMSO), 5 days (fraction); higher = more cells survive
Ibrutinib + Dasatinib = compound: C=CC(=O)N1CCC[C@@H](n2nc(-c3ccc(Oc4ccccc4)cc3)c3c(N)ncnc32)C1 [Ibrutinib] + Cc1nc(Nc2ncc(C(=O)Nc3c(C)cccc3Cl)s2)cc(N2CCN(CCO)CC2)n1 [Dasatinib] (partner 0.075 µM)
Summary of the method: (§1)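 One day after seeding in 1536-well plates, lung cancer cell lines were dosed by pin tool. Dosing was either single-drug or a fixed anchor-drug dose plus five library-drug doses (not always all listed) in √10 steps. After 5 days, nuclei were stained in one fix-and-stain step and counted on 4× images, and relative viability is the nuclei count of treated wells over that of vehicle wells, given as the median of duplicate plates.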

BMX-IN-1 + Tozasertib = compound: C=CC(=O)Nc1cc(-n2c(=O)ccc3cnc4ccc(-c5ccc(NS(C)(=O)=O)cc5)cc4c32)ccc1C [BMX-IN-1] + Cc1cc(Nc2cc(N3CCN(C)CC3)nc(Sc3ccc(NC(=O)C4CC4)cc3)n2)n[nH]1 [Tozasertib] (partner 0.1 µM)
Summary of the method: as §1

PAC-1 + Lapatinib = compound: C=CCc1cccc(/C=N/NC(=O)CN2CCN(Cc3ccccc3)CC2)c1O [PAC-1] + CS(=O)(=O)CCNCc1ccc(-c2ccc3ncnc(Nc4ccc(OCc5cccc(F)c5)c(Cl)c4)c3c2)o1 [Lapatinib] (partner 2 µM)
Summary of the method: as §1

PAC-1 + Crizotinib = compound: C=CCc1cccc(/C=N/NC(=O)CN2CCN(Cc3ccccc3)CC2)c1O [PAC-1] + C[C@@H](Oc1cc(-c2cnn(C3CCNCC3)c2)cnc1N)c1c(Cl)ccc(F)c1Cl [Crizotinib] (partner 1 µM)
Summary of the method: as §1

Row | Cell Line | relative viability (Ibrutinib + Dasatinib; first compound 0.005 µM) | relative viability (Ibrutinib + Dasatinib; first compound 0.01581 µM) | relative viability (Ibrutinib + Dasatinib; first compound 0.05 µM) | relative viability (Ibrutinib + Dasatinib; first compound 0.1581 µM) | relative viability (Ibrutinib + Dasatinib; first compound 0.5 µM) | relative viability (BMX-IN-1 + Tozasertib; first compound 0.02 µM) | relative viability (BMX-IN-1 + Tozasertib; first compound 0.6325 µM) | relative viability (BMX-IN-1 + Tozasertib; first compound 2 µM) | relative viability (PAC-1 + Lapatinib; first compound 0.02 µM) | relative viability (PAC-1 + Lapatinib; first compound 0.06325 µM) | relative viability (PAC-1 + Lapatinib; first compound 0.2 µM) | relative viability (PAC-1 + Lapatinib; first compound 2 µM) | relative viability (PAC-1 + Crizotinib; first compound 0.02 µM) | relative viability (PAC-1 + Crizotinib; first compound 0.06325 µM) | relative viability (PAC-1 + Crizotinib; first compound 0.2 µM) | relative viability (PAC-1 + Crizotinib; first compound 2 µM) | relative viability (BMX-IN-1 + Tozasertib; first compound 0.2 µM)
1 | LOU-NH91 | 0.473 | 0.474 | 0.485 | 0.522 | 0.38 | 0.829 | 0.715 | 0.656 | 0.723 | 0.82 | 0.749 | 0.782 | 0.747 | 0.762 | 0.723 | 0.728 | 
2 | LU99A | 0.514 | 0.605 | 0.465 | 0.556 | 0.483 | 0.275 | 0.275 | 0.293 | 1.11 | 1.05 | 0.918 | 0.977 | 0.618 | 0.581 | 0.515 | 0.544 | 0.294
3 | LXF-289 | 0.26 | 0.14 | 0.275 | 0.325 | 0.176 | 0.212 | 0.187 | 0.146 | 0.901 | 0.903 | 0.897 | 0.927 | 0.833 | 0.807 | 0.789 | 0.835 | 0.197
4 | NCI-H23 | 0.705 | 0.762 | 0.902 | 0.662 | 0.901 | 0.331 | 0.586 | 0.34 | 1.13 | 1.17 | 0.868 | 1.34 | 0.481 | 0.396 | 0.489 | 0.535 | 0.367
5 | NCI-H322M | 0.218 | 0.236 | 0.242 | 0.241 | 0.238 | 0.514 | 0.475 | 0.401 | 0.526 | 0.581 | 0.668 | 0.576 | 0.792 | 0.839 | 0.877 | 0.854 | 0.548

— the supplement of paper PMC10307832
